Measurements taken from article PMC10246557, “Kinetic and inhibition studies on human Jumonji-C (JmjC) domain-containing protein 5” (RSC Chemical Biology, 2023).
Values joined by “and” are separate entries in the source; they are usually repeats but may differ in a detail not shown here. Equal entries are not always repeated. Where two headings read alike, the source gives them in different places.

Experiments:
human AspH [1] = conditions: absence of 2OG, AspH 0.1 μM, 2OG derivative 330 μM, Fe(II) 50 μM, hFX-CP101–119 2.0 μM, cited from earlier work
human FIH [2] = system: human FIH; parameters: method as in ref 10 (ESI); conditions: FIH 0.15 μM, HIF-1α788-822 5.0 μM, 2OG 10 μM; ref 10 (ESI); cited from earlier work
human AspH [3] = system: human AspH; parameters: method as in ref 9 (ESI); conditions: AspH 0.05 μM, hFX-CP101-119 1.0 μM, 2OG 3.0 μM; ref 9 (ESI); cited from earlier work
human FIH [4] = conditions: absence of 2OG, FIH 0.15 μM, 2OG derivative 330 μM, Fe(II) 50 μM, HIF-1α788–822 5.0 μM, cited from earlier work
human JMJD5 [5] = target: T1, human JMJD5 (Homo sapiens, UniProt Q8N371); test: SPE-MS JMJD5 inhibition assay; format: biochemical; conditions: JMJD5 0.15 μM, 2OG 2.0 μM, Fe(II) 2.0 μM, LAA 100 μM, RPS6_128–148 2.0 μM; read-out: IC50 JMJD5
T1 construct: made in house; host or cells: Escherichia coli BL21(DE3)
Experimental: Solutions of the small-molecules (100% DMSO) were dry dispensed across 384 well polypropylene V-bottom assay microplates (Greiner) in an approximately three-fold and 11-point dilution series (100 μM inhibitor top concentration; the final DMSO assay concentration was kept constant at 0.5%v/v) using an ECHO 550 acoustic dispenser (Labcyte). […] Each reaction was performed in technical duplicates in adjacent wells of the assay plates; additionally, assays were performed in two independent duplicates on different days using different inhibitor solutions.
The Enzyme Mixture (25 μL per well), containing 0.3 μM His6-thioredoxin-tagged JMJD5 in buffer (50 mM MOPS, pH 7.5), was dispensed across the inhibitor-containing 384-well plates with a multidrop dispenser (ThermoFischer Scientific) at 20 °C under an ambient atmosphere. The plates were subsequently centrifuged (1000 rpm, 5 s) and incubated for 15 min at 20 °C. […] The plates were centrifuged (1000 rpm, 5 s) and, after incubating for 30 min, the enzyme reaction was stopped by the addition of 10%v/v aqueous formic acid (5 μL per well). The plates were then centrifuged (1000 rpm, 30 s) and analyzed by MS.
Z′-Factors were calculated according to the cited literature using Microsoft Excel.[61]

human KDM4E [6] = target: T2, human KDM4E (Homo sapiens, UniProt B2RXH2); test: KDM4E SPE-MS turnover and kinetic assay (H3 K9(me3) peptide demethylation); format: biochemical; conditions: for KDM4E (%): substrate demethylation with the compound as cosubstrate: absence of 2OG, KDM4E 0.15 μM, 2OG derivative 330 μM, Fe(II) 50 μM, ARTAQTARK(me3)STGGIA 10.0 μM
T2 sequence (B2RXH2 1-506): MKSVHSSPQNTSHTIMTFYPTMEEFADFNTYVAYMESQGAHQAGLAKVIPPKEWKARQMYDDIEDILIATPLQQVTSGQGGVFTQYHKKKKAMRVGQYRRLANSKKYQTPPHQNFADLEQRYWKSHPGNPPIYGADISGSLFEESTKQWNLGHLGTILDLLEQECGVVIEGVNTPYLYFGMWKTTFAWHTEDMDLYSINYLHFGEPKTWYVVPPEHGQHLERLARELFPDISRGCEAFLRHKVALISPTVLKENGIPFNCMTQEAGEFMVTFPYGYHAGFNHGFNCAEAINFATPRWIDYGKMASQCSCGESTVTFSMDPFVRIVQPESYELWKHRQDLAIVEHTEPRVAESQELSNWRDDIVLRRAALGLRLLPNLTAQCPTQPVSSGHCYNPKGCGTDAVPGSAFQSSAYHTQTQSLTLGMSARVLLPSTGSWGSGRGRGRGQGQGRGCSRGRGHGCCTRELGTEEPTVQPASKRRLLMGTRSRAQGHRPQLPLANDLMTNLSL
Experimental: KDM4E turnover and inhibition assays were performed as reported using recombinant human KDM4E and a histone 3 K9(me3) derivative (i.e. […](me3)STGGIA)[41] as substrate.[95]
Supplementary Figure S3. Rates of KDM4E-catalyzed Nε-trimethyl lysine demethylations of a histone 3- […]
Maximum velocities (vapp ) and Michaelis […]
catalyzed Nε-trimethyl lysine demethylation of the histone 3 K9(me3)-derived peptide […]
(me3)STGGIA2 by SPE-MS as described;3 note that mono-, di-, and tri-demethylated product […]
buffer (50 mM MES, pH 7.0, 20 °C). Measurement times were normalized to the first sample injection analyzed […]
(§1) Data are shown as the mean of three independent runs (n = 3; mean ± SD).
(a) Time course of the KDM4E-catalyzed Nε-trimethyl lysine demethylation reaction of the […]

human JMJD5 [7] = target: T1, human JMJD5; test: SPE-MS JMJD5 turnover and kinetic assay (RPS6_128–148 hydroxylation); format: biochemical; conditions: for JMJD5 (%): RPS6_128–148 hydroxylation with the compound as cosubstrate: absence of 2OG, JMJD5 0.15 μM, 2OG derivative 400 μM, Fe(II) 20 μM, RPS6_128–148 2.0 μM
Experimental: JMJD5 turnover assays for time course and kinetic experiments were performed in 96-well polypropylene assay plates (Greiner) with either […] total reaction volume using the concentrations given in the manuscript or ESI, ^† and JMJD5-catalysed substrate hydroxylation was directly monitored using SPE-MS. […] Assay samples were aspirated under vacuum for 0.6 s and loaded onto a C4 solid phase extraction (SPE) cartridge. After loading, the C4 SPE cartridge was washed with 0.1%v/v aqueous formic acid to remove non-volatile buffer salts (5.5 s, 1.5 mL min^−1). The peptide was eluted from the SPE cartridge with 0.1%v/v aqueous formic acid in 80/20v/v acetonitrile/water into the mass spectrometer (5.5 s, 1.5 mL min^−1) and the SPE cartridge re-equilibrated with 0.1%v/v aqueous formic acid (0.5 s, 1.5 mL min^−1). The mass spectrometer was operated using the MassHunter Workstation B.08.00 software (Agilent), the mass spectrometer parameters were: capillary voltage (4000 V), nozzle voltage (1000 V), fragmentor voltage (365 V), gas temperature (280 °C), gas flow (13 L min^−1), sheath gas temperature (350 °C), sheath gas flow (12 L min^−1). […] Data were exported into Microsoft Excel and used to calculate the % conversion of the hydroxylation reaction using the equation: % conversion = 100 × (integral product peptide)/(integral substrate peptide + integral product peptide).
parameters (continues on the following two pages). Maximum velocities (vapp ) and Michaelis constants (Kapp)
of JMJD5 were determined in independent triplicates, monitoring the JMJD5-catalyzed hydroxylation of the
SPE-MS, as described (Experimental Section).
20 °C). Measurement times were normalized to the first sample injection analyzed after the addition of JMJD5 to
shown as the mean of three independent runs (n = 3; mean ± standard deviation, SD).
hexahydrate (20 μM, (NH4)2Fe(SO4)2·6H2O); and (b) hydroxylation rates used to determine kinetic parameters of
(1 picture or pasted object on this page, not shown here)
Maximum velocities (vapp ) and
Michaelis constants (Kapp) of JMJD5 were determined in independent triplicates for (1R)-3-
(carboxycarbonyl)cyclopentane-1-carboxylic acid (14), monitoring the JMJD5-catalyzed hydroxylation of the
as described (Experimental Section).
pH 7.5, 20 °C). Measurement times were normalized to the first sample injection analyzed after the addition of
as §1
to determine kinetic parameters of JMJD5 for 14.

human KDM4E [8] = target: T2, human KDM4E; test: KDM4E SPE-MS inhibition assay; format: biochemical; conditions: KDM4E 0.15 μM, peptide 10.0 μM, LAA 100 μM, FAS 10 μM, 2OG 10 μM
Experimental: KDM4E turnover and inhibition assays were performed as reported using recombinant human KDM4E and a histone 3 K9(me3) derivative (i.e. […](me3)STGGIA)[41] as substrate.[95] […]

T1 sequence (Q8N371 whole entry): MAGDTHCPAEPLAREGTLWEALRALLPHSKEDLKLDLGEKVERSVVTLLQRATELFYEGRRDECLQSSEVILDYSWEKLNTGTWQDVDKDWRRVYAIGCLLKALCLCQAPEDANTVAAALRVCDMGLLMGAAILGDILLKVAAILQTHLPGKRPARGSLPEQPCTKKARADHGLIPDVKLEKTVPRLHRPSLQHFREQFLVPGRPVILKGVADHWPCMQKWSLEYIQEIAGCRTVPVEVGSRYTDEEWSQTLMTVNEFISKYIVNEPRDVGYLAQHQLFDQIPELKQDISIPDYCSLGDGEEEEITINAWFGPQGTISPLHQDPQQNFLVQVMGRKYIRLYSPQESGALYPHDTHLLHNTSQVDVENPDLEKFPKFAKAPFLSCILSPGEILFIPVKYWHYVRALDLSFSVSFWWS

| KDM4E (%): substrate demethylation with the compound as cosubstrate (human KDM4E [6]; listed as Entry 22) [%] | fold less efficient KDM4E cosubstrate than 2OG (human KDM4E [6]) [fold] | KDM4E (%): substrate demethylation with the compound as cosubstrate (human KDM4E [6]; listed as Entry 2) | JMJD5 (%): RPS6_128–148 hydroxylation with the compound as cosubstrate (human JMJD5 [7]; listed as Entry 2) | JMJD5-catalyzed RPS6_128–148 hydroxylation, time course (human JMJD5 [7]; after 50 min, 10 μM cosubstrate, 0.15 μM JMJD5, 10 μM Fe(II), 2.0 μM RPS6_128–148) [%] | KDM4E (%): substrate demethylation with the compound as cosubstrate (human KDM4E [6]; listed as Entry 13) [%] | Compound | AspH (%): substrate hydroxylation with the compound as cosubstrate (human AspH [1]) | IC50 (human FIH [2]) [µM] | IC50 (human AspH [3]) [µM] | FIH (%): substrate hydroxylation with the compound as cosubstrate (human FIH [4]) | IC50 (human JMJD5 [5]) [µM] | KDM4E (%): substrate demethylation with the compound as cosubstrate (human KDM4E [6]) [%] | JMJD5 (%): RPS6_128–148 hydroxylation with the compound as cosubstrate (human JMJD5 [7]) | AspH (%): substrate hydroxylation with the compound as cosubstrate (human AspH [1]; listed as Entry 22) | IC50 (human KDM4E [8]) | FIH (%): substrate hydroxylation with the compound as cosubstrate (human FIH [4]; listed as Entry 22) | AspH (%): substrate hydroxylation with the compound as cosubstrate (human AspH [1]; listed as Entry 2) [%] | FIH (%): substrate hydroxylation with the compound as cosubstrate (human FIH [4]; listed as Entry 2) | AspH (%): substrate hydroxylation with the compound as cosubstrate (human AspH [1]; listed as Entry 13) [%] | FIH (%): substrate hydroxylation with the compound as cosubstrate (human FIH [4]; listed as Entry 13) [%] |
| --- | --- | --- | --- | --- | --- | --- | --- | --- | --- | --- | --- | --- | --- | --- | --- | --- | --- | --- | --- | --- |
|  |  |  |  |  |  | 4-methyl-2OG [2OG derivative 8] | ~ 10% | > 50 | > 50 | ~ 45% | > 50 | < 1 | ~ 10% |  |  |  |  |  |  |  |
| < 1 |  |  |  |  |  | O=C(O)C(=O)C1CC[C@@H](C(=O)O)C1 (mixture of isomers) [2OG derivative 14, (1R)-3-(carboxycarbonyl)cyclopentane-1-carboxylic acid] |  | > 50 |  |  |  |  |  | ~ 15% | 27.9 ± 3.5 µM | ~ 2% |  |  |  |  |
|  |  |  |  |  |  | O=C(O)C(=O)c1ccc(C(=O)O)cc1Br [2OG derivative 30] | ~ 20% | > 50 | > 50 | < 1% | > 50 | < 1 | < 1% |  | > 50 µM |  |  |  |  |  |
|  |  |  |  |  |  | 4-(2-naphthyl)methyl-2OG [2OG derivative 23] | < 1% | 2.5 ± 0.1 |  | < 1% | > 50 | < 1 | < 1% |  | 6 to 7 µM and ~6.9 µM |  |  |  |  |  |
|  |  |  |  |  |  | O=C(O)C(=O)c1ccc(C(=O)O)s1 [2OG derivative 34] | ~ 15% | > 50 |  | < 1% | > 30 | < 1 | < 1% |  | > 50 µM |  |  |  |  |  |
|  |  |  |  |  |  | O=C(O)C(=O)c1ccc(C(=O)O)cc1F [2OG derivative 28] | ~ 45% | > 50 | > 50 | < 1% | > 50 | < 1 | < 1% |  | > 50 µM |  |  |  |  |  |
|  | ~7 | ~ 10% | ~ 10% | ~20 |  | CC(CC(=O)O)C(=O)C(=O)O (centres unmarked) [2OG derivative 1, 3-methyl-2OG] |  | > 50 | > 50 |  | > 50 |  |  |  | > 30 µM |  | > 95 | ~ 55% |  |  |
|  |  |  |  |  |  | O=C(O)C(=O)C1C2C=CC(C2)C1C(=O)O (racemic) [2OG derivative 26] | < 1% | > 50 |  | < 1% | > 50 | < 1 | < 1% |  | > 50 µM |  |  |  |  |  |
|  |  |  |  |  | < 1 | CC(C)(CC(=O)C(=O)O)C(=O)O [2OG derivative 9, 4,4-dimethyl-2OG] |  | > 50 | ~0.3 |  |  |  |  |  | > 30 µM |  |  |  | < 1 | < 5 |
